Article PMC5510229, “BCAT1 controls metabolic reprogramming in activated human macrophages and is associated with inflammatory diseases” (Nature Communications, 2017)

Experiments:
[1] = Uptake and metabolism of ERG240 in human macrophage lysates by GC/MS; assay type: in vitro ADME
From the text: NCOMMS-16-23550_Point by Point Responses Papathanassiu et al.
Add additional explanation for “extracellular space” findings because this is unclear.
Authors’ reply. ‘Extracellular space’ has now been replaced by ‘extracellular matrix genes’ in the revised manuscript (Figure 3 in the submitted manuscript which is now Figure 4 in the revised one). We have also added a Volcano plot showing the differentially expressed genes (Figure 4E in the revised manuscript).
Authors fail to cite and discuss this paper found in quick google search “ Nemeth, B.; Doczi, J.; Csete, D.; Kacso, G.; Ravasz, D.; Adams, D.; Kiss, G.; Nagy, A. M.; Horvath, G.; Tretter, L.; Mocsai, A.; Csepanyi-Komi, R.; Iordanov, I.; Adam-Vizi, V.; Chinopoulos, C. (2015).
“Abolition of mitochondrial substrate-level phosphorylation by itaconic acid produced by LPS-induced Irg1 expression in cells of murine macrophage lineage”. The FASEB Journal.
Authors’ reply. This paper is now cited and discussed by adding this following paragraph to the discussion (highlighted text).
Besides its antimicrobial effects, itaconate has been proposed as an inhibitor of substrate level phosphorylation (SLP) through its effect on succinate-CoA ligase in RAW-264.7 cells1.
Statistical analysis (or indications in figures) is lacking in Fig 1C. Fig 4C.
Authors’ reply. Statistical analyses are added for Fig 1C and 4C. Please note that Figure
4C is now Figure 5C in the revised manuscript. (See also highlighted text in figure legends).
Dosing in vitro should be discussed further- 20mM in vitro is a high dose if IC50 is in nM […]
Authors’ reply. ERG240 is a structural analogue of leucine, designed based on the X-ray crystal structure of BCAT1 and, as the reviewer correctly states, it can inhibit BCAT1 within 0.1-1nM range of IC50. The concentration of 20 mM used in the cellular assays is because […]
possible competition with leucine, which is in mM concentration (0.381 mM) in the RPMI media used throughout the study. […]
A cartoon of metabolites regulated would aid the reader. […]
ERG240 can easily be detected […]

[2] = system: nephrotoxic nephritis (NTN) model; test: Nephrotoxic nephritis (NTN, crescentic glomerulonephritis) in the WKY rat; assay type: in vivo, Wistar-Kyoto (WKY) rat
From the text: Figure 5 Orally administrated ERG240 reduced the severity of crescentic glomerulonephritis in rats and CIA in mice. (a) Glomerular crescents, serum creatinine, and proteinuria levels measured in vehicle and ERG240 treated rats at day 10 following induction of nephrotoxic nephritis. At least n=4 rats were used in each group. (b) Col1a1 immunofluorescence (IF) quantification (left panel), representative IF and Sirius red staining images (middle panel) and Col1a1 qRT-PCR (normalized to Hprt) 28 days following NTS injection. Original magnification, × 20, at least n=4 animals were used in each group. (c) Clinical progression of CIA measured by the Mean Arthritis Index in vehicle and ERG240-treated animals in both studies (prophylactic and therapeutic, upper panel; at least n=6 animals per group). Histological analysis of joints from representative whole paws scored for inflammation, pannus formation, cartilage damage and bone resorption (lower panel). Error bars are s.e.m. Either Mann–Whitney or Student’s t-test were used for significance. *** P<0.001, ** P<0.01, * P<0.05. Scale bars, 50 μm.
Nephrotoxic nephritis (NTN) was induced in twelve week old male Wistar-Kyoto (WKY) rats by intravenous injection of 0.1 ml of nephrotoxic serum (NTS), as previously described. Five WKY rats received ERG240 (250 mg kg^−1) orally in 0.1% carboxymethylcellulose once a day for a duration of 10 days whereas the vehicle treated WKY rats had carboxymethylcellulose only for the same period. Nine days following NTS injection, urine was collected by placing rats in metabolic cages for 24 h with free access to food and water. Proteinuria was determined by the sulphosalicylic acid test and serum creatinine by the Creatinine Assay Kit (Abcam). After 10 or 28 days of NTN induction, rats were culled and the kidney was formalin fixed and paraffin embedded for immunohistochemistry. To quantify the number of macrophages infiltrating the glomeruli, formalin-fixed paraffin-embedded kidney sections were stained with mouse monoclonal antibody to ED-1 (Serotec, Oxford, UK), followed by an HRP-labelled anti-mouse polymer development system (Dako Ltd, UK). For the evaluation of total collagen, renal tissues were stained with Sirius red. For Col1a1 immunofluorescence, sections were blocked with BSA, incubated with the Col1a1 primary antibody raised in goat (Southern Biotech, 1/40 dilution), washed and re-incubated with secondary antibody (donkey anti-goat-FITC, 1/100 dilution, Abcam). For ED-1 staining, the cellular infiltrates in 20 consecutive glomeruli were quantified using an automated image analysis software (ImagePro Plus, Media Cybernetics, Bethesda, MD) and expressed as a percentage of total glomerular cross sectional area.

[3] = 250 mg kg^−1 orally once a day, 10 days, day 10

In the case of `CC(=O)C(C)CCC(=O)O` (centres unmarked) [ERG240], the “uptake of the compound by cells” value ([1]; 1x10^6 cells treated with 3.28 mg ERG240 (20 mM)) was 0.8 to 3 ng, the “estimated intracellular ERG240 concentration” value ([1]; human macrophages treated with 20 mM) was 70 to 260 nM and the “cellular metabolism of the drug” value ([1]; lysates of human macrophages, GC/MS) was “does not undergo any cellular metabolic reaction”. The glomerular crescent formation [2, 3] was “significantly reduced”, the proteinuria [2, 3] was “significantly reduced” and the serum creatinine [2, 3] was “significantly reduced”. The interstitial fibrosis ([2]; NTN model) was “reduced interstitial fibrosis”, the “Col1a1 mRNA levels in the renal cortex” value ([2]; day 28) was “reduced” and the Sirius red staining ([2]; day 28) was “reduced Sirius red staining”. For the same molecule, the “collagen type I alpha I quantitative immunofluorescence in nephritic kidneys” value ([2]; day 28) was “significant down-regulation” and the “glomerular infiltration of CD68 (ED1)-positive cells” value ([2]; rat, in vivo) was “significantly decreased”.
